Literature values in US11648211B2, “Nanoencapsulated combination drug formulations” (priority 2019, dated 2023).
Where a name gives a salt, the structure may show the parent alone. Read-outs that look alike come from different tables or passages of the source.

Assays:
[1] = test system: SARS-2-S-driven entry into Vero-TMPRSS2 cells
[2] = test system: SARS-2-S-driven entry into Caco-2 cells
[3] = in vivo
[4] = in vivo, ip, 5 mg/kg
advanced breast cancer = details: in vivo
[5] = human, in vivo

Compound: CN(C)C(=O)COC(=O)Cc1ccc(OC(=O)c2ccc(NC(=N)N)cc2)cc1 [Camostat mesylate]
- SARS-2-S-driven entry [1]: partially blocked
- SARS-2-S-driven entry [2]: partially blocked

Compound: CCc1cnn2c(NCc3ccc[n+]([O-])c3)cc(N3CCCC[C@H]3CCO)nc12 [DCB, Dinaciclib]
- patients with grade 3-4 toxicities [3]: 60%
- half-life [4]: 0.25 h
- grade 3-4 febrile neutropenia (advanced breast cancer): 11%
- grade 3-4 increased transaminase levels (advanced breast cancer): 11%
- grade 3-4 leukopenia (advanced breast cancer): 21%
- grade 3-4 neutropenia (advanced breast cancer): 47%
- half-life [5]: 3.3 h
- patients with neutropenia [5]: 43%
- patients with thrombocytopenia [5]: 3%

Compound: Cn1ncnc1[C@H]1c2n[nH]c(=O)c3cc(F)cc(c23)N[C@@H]1c1ccc(F)cc1 [TLZ, Talazoparib]
- patients with anemia, low RBC count (oral): 52%
- patients with leukopenia, low WBC count (oral): 17%
- patients with thrombocytopenia, low PLT count (oral): 27%
- patients with neutropenia (patients treated with TLZ): 35%
